Test results: patent US8431700B2, “Alkylsulfonyl-2,3-dihydrospiro[indene-1,4′-piperidine] analogs as GlyT1 inhibitors, methods for making same, and use of same in treating psychiatric disorders” (Vanderbilt University, priority 2009, dated 2013)

Test system: GlyT1
Assay: not given
Conditions: cited from earlier work

Row | SMILES | Duration of increased glycine levels in the prefrontal cortex
1 | CN(CC[C@@H](Oc1ccc(-c2ccccc2)cc1)c1ccc(F)cc1)CC(=O)O [(R)-NFPS] | > 24 h

Target: T1, GlyT1 (Homo sapiens, UniProt P48067)
T1 construct: Human placental choriocarcinoma cells endogenously expressing GlyT1; host or cells: JAR human placental choriocarcinoma cells
T1 sequence (P48067 1-706): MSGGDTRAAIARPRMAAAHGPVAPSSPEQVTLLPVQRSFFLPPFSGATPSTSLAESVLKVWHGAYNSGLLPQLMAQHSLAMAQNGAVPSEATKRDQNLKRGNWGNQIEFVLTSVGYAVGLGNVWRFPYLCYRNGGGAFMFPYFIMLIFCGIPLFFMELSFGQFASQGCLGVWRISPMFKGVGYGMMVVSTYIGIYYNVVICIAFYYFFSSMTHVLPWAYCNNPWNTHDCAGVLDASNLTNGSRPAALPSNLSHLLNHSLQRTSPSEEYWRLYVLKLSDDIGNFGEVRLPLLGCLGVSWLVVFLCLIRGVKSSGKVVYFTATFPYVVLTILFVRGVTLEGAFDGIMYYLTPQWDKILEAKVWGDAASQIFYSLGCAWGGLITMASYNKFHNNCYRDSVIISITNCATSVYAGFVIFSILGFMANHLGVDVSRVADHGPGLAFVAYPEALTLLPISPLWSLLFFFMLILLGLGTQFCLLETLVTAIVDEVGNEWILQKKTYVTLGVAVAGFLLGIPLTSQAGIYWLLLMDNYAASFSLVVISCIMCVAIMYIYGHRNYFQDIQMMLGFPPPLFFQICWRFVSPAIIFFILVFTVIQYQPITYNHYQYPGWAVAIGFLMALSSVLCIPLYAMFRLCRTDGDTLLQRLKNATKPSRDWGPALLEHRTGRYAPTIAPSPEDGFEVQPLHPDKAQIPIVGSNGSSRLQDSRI
Assay: Saturation [14C]-glycine uptake in JAR cells to determine mode of inhibition
Format: cell-based
Conditions: in the presence of 1 nM NFPS; control Km=28.97 μM; read-out: Km of [14C]-glycine transport
Description: To determine the mode of inhibition of GlyT1 inhibitors, a previously published assay for saturation glycine uptake was utilized. Briefly, human placental choriocarcinoma (JAR) cells (ATCC Catalog #HTB-144) were obtained from the American Type Culture Collection (Manassas, Va.). JAR cells were plated at a density of 12,000 cells/well in Cytostar-T 96 well plates (Amersham) in RPMI 1640 Media (Sigma, Catalog #R8758) containing 10 mM HEPES, 1 mM Sodium Pyruvate, 10% fetal bovine serum, 1× Antibiotic/Antimycotic (Invitrogen, Catalog #15240-062), and 4.5 g/L glucose 48 hours prior to the assay. Cell cultures were maintained at 37° C. in an atmosphere of 95% air, 5% CO2. On the day of the assay, culture media was removed, and 30 μL of T1BA buffer (120 mM NaCl, 2 mM KCl, 1 mM CaCl2, 1 mM MgCl2, 10 mM HEPES, 5 mM L-alanine, pH 7.5 using 1M tris base) with or without 2× drug was added to the JAR cells. Plates were incubated for 5 minutes at room temperature, followed by the addition of 30 μL of 2×[^14C]-glycine (111.7 mCi/mmol, obtained from Perkin-Elmer) made up in T1BA Buffer to give final concentrations as indicated. Aliquots of each concentration of [^14C]-glycine were saved in triplicate for direct determination of their concentration via liquid scintillation counting for each assay. Plates were incubated in the dark at room temperature for 3-4 hours and sealed 96-well Cytostar T plates were counted on a Top Count (Perkin-Elmer) with a 1 minute count time per well. Nonspecific uptake was determined in the presence of 10 mM cold glycine. Fixed concentrations of representative compounds and known competitive (ACPPB) and non-competitive inhibitors (NFPS) were included in each assay as comparators.
Data were analyzed by non-linear regression analysis using GraphPad Prism 4.0 (GraphPad, La Jolla, Calif.). Uptake curves were fit to a Michaelis-Menton type equation: V=(Vmax*[S])/(Km+[…]), where V=Velocity in counts per minute (CPM), Vmax=Maximum Velocity in CPM, [S]=Substrate Concentration, and Km is the concentration of substrate to elicit 50% of the Maximal Velocity. Data were additionally plotted as Eadie-Hofstee plots of V versus V/[S] to better visualize the mode of inhibition. […] As an example of the disclosed series of compounds, 9UD was tested side-by-side with known competitive (ACPPB) and non-competitive (NFPS) inhibitors of glycine transport.

Row | SMILES | Km
2 | CN(CCC(Oc1ccc(-c2ccccc2)cc1)c1ccc(F)cc1)CC(=O)O (centres unmarked) [NFPS, (N-[3-(4′-fluorophenyl)-3-(4′-phenylphenoxy)propyl])sarcosine] | 30.7 µM

Same assay, conditions: in the presence of 1 nM NFPS; control Vmax=16056 CPM

Row | SMILES | Vmax of [14C]-glycine transport
3 | CN(CCC(Oc1ccc(-c2ccccc2)cc1)c1ccc(F)cc1)CC(=O)O (centres unmarked) [NFPS, (N-[3-(4′-fluorophenyl)-3-(4′-phenylphenoxy)propyl])sarcosine] | 9298 CPM

Same assay, conditions: in the presence of 5 nM ACPPB; control Vmax=20508 CPM

Row | SMILES | Vmax of [14C]-glycine transport
4 | CCCS(=O)(=O)N1CCC(c2ccccc2)([C@H](C)NC(=O)c2ccc(Cl)cc2N)CC1 [ACPPB] | 21592 CPM

Same assay, conditions: in the presence of 400 nM 9UD; control Vmax=20495 CPM

Row | SMILES | Vmax of [14C]-glycine transport
5 | CCCCS(=O)(=O)N1CCC2(CC1)c1ccccc1CC2NC(=O)c1ccc(Cl)cc1Cl (centres unmarked) [Compound 9UD] | 20699 CPM

Same assay, conditions: with respect to glycine; Eadie-Hofstee analysis

Row | SMILES | Mode of inhibition of GlyT1 glycine transport
6 | CCCS(=O)(=O)N1CCC(c2ccccc2)([C@H](C)NC(=O)c2ccc(Cl)cc2N)CC1 [ACPPB] | competitive inhibition
7 | CCCCS(=O)(=O)N1CCC2(CC1)c1ccccc1CC2NC(=O)c1ccc(Cl)cc1Cl (centres unmarked) [Compound 9UD] | competitive inhibition
8 | CN(CCC(Oc1ccc(-c2ccccc2)cc1)c1ccc(F)cc1)CC(=O)O (centres unmarked) [NFPS, (N-[3-(4′-fluorophenyl)-3-(4′-phenylphenoxy)propyl])sarcosine] | non-competitive inhibition

Target: T1, GlyT1
Assay: [14C]-glycine uptake in JAR cells endogenously expressing GlyT1 (scintillation proximity assay)
Format: cell-based
Conditions: 10 μM [14C]-glycine, 3 h, read-out: Potency
From the text: The procedure used was analogous to that disclosed in Williams, J. B.; Mallorga P. J.; Lemaire W.; Williams D. L.; Na S.; Patel S.; Conn J. P.; Pettibone D. J.; Austin C.; Sur C.; “Development of a scintillation proximity assay for analysis of Na+/Cl−-dependent neurotransmitter transporter activity,” ANAL. BIOCHEM. 2003 Oct. 1; 321(1):31-7.
Human placental choriocarcinoma cells (JAR cells, ATCC No. HTB-144) were obtained from the American Type Culture Collection (Manassas, Va.). JAR cells were cultured in 96-well Cytostar T plates (GE Healthcare No. RPNQ0162) in RPMI 1640 medium (Sigma-Aldrich) containing 10% fetal bovine serum, 10 mM HEPES, 1 mM sodium pyruvate, penicillin (100 μg/ml), and streptomycin (100 μg/ml). Cells were plated at a density of 1.3×10^4 cells/well and grown at 37° C. in a humidified atmosphere of 5% CO2 for 40-48 h. Culture medium was removed from the Cytostar T plate and JAR cells were incubated with 30 μl of TB1A buffer (120 mM NaCl, 2 mM KCl, 1 mM CaCl2, 1 mM MgCl2, 10 mM Hepes, 5 mM L-alanine, pH 7.5 adjusted with 1 M Tris base) with or without multiple concentrations of test compound (added at 2× final concentration) for 1 min. Then 30 μl of [^14C]-glycine (Perkin-Elmer) diluted in TB1A was added to each well to give a final concentration of 10 μM. Cytostar T plates were then incubated in the dark at room temperature for 3 h, sealed with opaque white bottom plate seals (Perkin-Elmer) and clear top plate seals (Topseal A, Perkin-Elmer), and were counted on a Top Count (Packard). Glycine uptake was determined by measuring radioactivity in each well and plotted as a function of concentration of test compound. […] Nonspecific uptake of [^14C]-glycine was determined in the presence of 10 mM cold glycine. [^14C]-taurine (American Radiolabeled Chemicals, Inc.) uptake experiments were performed according to the same protocol except that 10 mM cold taurine was used to determine nonspecific uptake. For GlyT2 assays, COS-7 (ATCC No. CRL-1651) cells were utilized. COS-7 cells were transiently transfected with the human GlyT2 cDNA (Origene Technologies Inc., SC303452) using Fugene 6 (Roche) according to the manufacturer's instructions in Dulbecco's modified Eagle's medium (DMEM, Invitrogen) containing 10% Fetal Bovine Serum, 10 mM HEPES, 1 mM sodium pyruvate, penicillin (100 μg/ml), and streptomycin (100 μg/ml). The following day, the cells were plated at a density of 5×10^5 cells/well in Cytostar T plates and maintained at 37° C. in a humidified atmosphere of 5% CO2 for 24 h. GlyT2 glycine uptake experiments were performed according to the same protocol previously described.

Row | SMILES | IC50
9 | CCCS(=O)(=O)N1CCC2(CC1)c1ccccc1CC2NC(=O)c1ccc(Cl)cc1Cl (single isomer, unassigned) [Compound 7c] | 1300 nM
10 | CS(=O)(=O)N1CCC2(CC1)c1ccccc1CC2NC(=O)c1ccc(Cl)cc1Cl (centres unmarked) [Compound 2a] | > 10000 nM
11 | CCS(=O)(=O)N1CCC2(CC1)c1ccccc1CC2NC(=O)c1ccc(Cl)cc1Cl (centres unmarked) [Compound 2b] | > 10000 nM
12 | CCCS(=O)(=O)N1CCC2(CC1)c1ccccc1CC2NC(=O)c1ccc(Cl)cc1Cl (centres unmarked) [Compound 2c] | 450 nM
13 | CC(C)S(=O)(=O)N1CCC2(CC1)c1ccccc1CC2NC(=O)c1ccc(Cl)cc1Cl (centres unmarked) [Compound 2e] | > 10000 nM
14 | CCCCS(=O)(=O)N1CCC2(CC1)c1ccccc1CC2NC(=O)c1ccc(Cl)cc1Cl (centres unmarked) [Compound 2f] | > 10000 nM
15 | O=C(NC1Cc2ccccc2C12CCN(S(=O)(=O)c1cccs1)CC2)c1ccc(Cl)cc1Cl (centres unmarked) [Compound 2i] | > 10000 nM
16 | Cn1cnc(S(=O)(=O)N2CCC3(CC2)c2ccccc2CC3NC(=O)c2ccccc2Cl)c1 (centres unmarked) [Compound 4a] | 18 nM
17 | Cn1cnc(S(=O)(=O)N2CCC3(CC2)c2ccccc2CC3NC(=O)c2ccc(Cl)cc2)c1 (centres unmarked) [Compound 4b] | 15 nM
18 | Cn1cnc(S(=O)(=O)N2CCC3(CC2)c2ccccc2CC3NC(=O)c2ccc(F)cc2F)c1 (centres unmarked) [Compound 4c] | 18 nM
19 | Cn1cnc(S(=O)(=O)N2CCC3(CC2)c2ccccc2CC3NC(=O)c2c(F)cccc2F)c1 (centres unmarked) [Compound 4d] | 10 nM
20 | Cn1cnc(S(=O)(=O)N2CCC3(CC2)c2ccccc2CC3NC(=O)c2ccc(Cl)c(Cl)c2)c1 (centres unmarked) [Compound 4e] | 53 nM
21 | Cn1cnc(S(=O)(=O)N2CCC3(CC2)c2ccccc2CC3NC(=O)c2ccccc2C(F)(F)F)c1 (centres unmarked) [Compound 4f] | 24 nM
22 | Cn1cnc(S(=O)(=O)N2CCC3(CC2)c2ccccc2CC3NC(=O)c2cccc(C(F)(F)F)c2)c1 (centres unmarked) [Compound 4g] | 310 nM
23 | CCCS(=O)(=O)N1CCC2(CC1)c1ccccc1CC2NC(=O)c1ccc(Cl)cc1 (centres unmarked) [Compound 5a] | 1000 nM
24 | CCCS(=O)(=O)N1CCC2(CC1)c1ccccc1CC2NC(=O)c1c(F)cccc1F (centres unmarked) [Compound 5b] | 1160 nM
25 | CCCS(=O)(=O)N1CCC2(CC1)c1ccccc1CC2NC(=O)c1ccc(Cl)c(Cl)c1 (centres unmarked) [Compound 5c] | 609 nM
26 | CCCS(=O)(=O)N1CCC2(CC1)c1ccccc1CC2NC(=O)c1ccccc1C(F)(F)F (centres unmarked) [Compound 5d] | 674 nM
27 | CCCS(=O)(=O)N1CCC2(CC1)c1ccccc1CC2NC(=O)c1cccc(C(F)(F)F)c1 (centres unmarked) [Compound 5e] | 1600 nM
28 | CCCS(=O)(=O)N1CCC2(CC1)c1ccccc1CC2NC(=O)c1ccc(C(F)(F)F)cc1 (centres unmarked) [Compound 5f] | 270 nM
29 | CCCS(=O)(=O)N1CCC2(CC1)c1ccccc1CC2NC(=O)c1ccccc1OC (centres unmarked) [Compound 5g] | 2700 nM
30 | CCCS(=O)(=O)N1CCC2(CC1)c1ccccc1CC2NC(=O)c1ccccc1I (centres unmarked) [Compound 5h] | 266 nM
31 | Cn1cnc(S(=O)(=O)N2CCC3(CC2)c2ccccc2CC3NC(=O)c2ccc(Cl)cc2Cl)c1 (centres unmarked) [Compound 7a] | 3500 nM
32 | CCCS(=O)(=O)N1CCC2(CC1)c1ccccc1CC2NC(=O)c1ccc(Cl)cc1Cl (centres unmarked) [Compound 7d] | 52 nM
